Test: xn = mol fraction of the nth substance listed
Details: 100 kPa

CC[n+]1ccn(C)c1.F[B-](F)(F)F + CCOCCO
x2 = 0
Details	speed of sound [m/s]
298.15 K	1620.3
318.15 K	1573.8
328.15 K	1550.9

CCOCCO + CC[n+]1ccn(C)c1.F[B-](F)(F)F
speed of sound [m/s]
Details	298.15 K	308.15 K	318.15 K	328.15 K
x1 = 0.0466	1614.9	1591.3	1568	1545.2
x1 = 0.0981	1607.6	1583.8	1560.2	1537.4
x1 = 0.1487	–	1575	1551.2	1528.2
x1 = 0.1973	1589.7	1565.3	–	1517.9
x1 = 0.3049	1564.7	1539.7	–	1490.7
x1 = 0.4112	1535	1509.2	1483.5	1458.2
x1 = 0.4953	1508.4	–	1455.3	1428.8
x1 = 0.5705	1482.4	1455	1427.6	–
x1 = 0.696	1435	1406	1376.9	1347.7
x1 = 0.7952	1394.4	1363.9	–	1302.7
x1 = 0.8411	1374.8	1343.6	1311.9	–
x1 = 0.8698	1362.4	–	1298.3	1267.2
x1 = 0.9487	1327.3	1294	1259.9	1228.2
x1 = 1	1304	1269.5	1234.1	1202.2

Reference: a compilation of properties of binary mixtures (doi:10.1007/s10973-015-5205-9)
